The compounds below were run against T1, PDE5A1 (human PDE5 from platelets) (Homo sapiens, UniProt O76074) (assay: Inhibition of type 5 phosphodiesterase (PDE5) activity, modified SPA test). Details: PDE5-containing human platelet lysate, 0.5 μM cGMP, value classes, read-out: PDE5A1 inhibitory values [measured as −logIC50 (mol/l)] (converted).
T1 construct: from tissue; host or cells: platelets from fresh blood of human donors (10,000 g supernatant of sonified platelets)
Format: biochemical
Procedure, shortened: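 Enzyme source: human platelet lysate (10,000 g supernatant), with 1 μM motapizone and 10 nM PDE2 inhibitor present. SPA format in 20 mM Tris pH 7.4, 5 mM Mg2+, 0.5 μM cGMP with [3H]cGMP tracer; 5 min preincubation at 37 °C, 15 min reaction, stopped with IBMX-containing beads. IC50 by non-linear regression.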

IC50 [nM]	Structure (SMILES)
1 to 10	CC(=O)N[C@H]1CC[C@@H](NC(=O)c2c(C)[nH]c3c(-c4cc(C)ccc4OCC4CC4)ccnc23)CC1 [Example E58, N-[cis-4-(Acetylamino)cyclohexyl]-7-[2-(cyclopropylmethoxy)-5-methylphenyl]-2-methyl-1H-pyrrolo[3,2-b]pyridine-3-carboxamide]
1 to 10	CCC(=O)N[C@H]1CC[C@@H](NC(=O)c2c(C)[nH]c3c(-c4cc(C)ccc4OCC4CC4)ccnc23)CC1 [Example E59, 7-[2-(Cyclopropylmethoxy)-5-methylphenyl]-2-methyl-N-[cis-4-(propanoylamino)cyclohexyl]-1H-pyrrolo[3,2-b]pyridine-3-carboxamide]
1 to 10	COCC(=O)N[C@H]1CC[C@@H](NC(=O)c2c(C)[nH]c3c(-c4cc(C)ccc4OCC4CC4)ccnc23)CC1 [Example E60, 7-[2-(Cyclopropylmethoxy)-5-methylphenyl]-N-{cis-4-[(methoxyacetyl)amino]cyclohexyl}-2-methyl-1H-pyrrolo[3,2-b]pyridine-3-carboxamide]
< 1	COc1cc(-c2ccnc3c(C(=O)NC4CCN(C(C)=O)CC4)c(C)[nH]c23)c(OCC2CC2)cc1F [Example E61, N-(1-Acetylpiperidin-4-yl)-7-[2-(cyclopropylmethoxy)-4-fluoro-5-methoxyphenyl]-2-methyl-1H-pyrrolo[3,2-b]pyridine-3-carboxamide]
< 1	CCC(=O)N1CCC(NC(=O)c2c(C)[nH]c3c(-c4cc(OC)c(F)cc4OCC4CC4)ccnc23)CC1 [Example E62, 7-[2-(Cyclopropylmethoxy)-4-fluoro-5-methoxyphenyl]-2-methyl-N-(1-propanoylpiperidin-4-yl)-1H-pyrrolo[3,2-b]pyridine-3-carboxamide]
< 1	COCC(=O)N1CCC(NC(=O)c2c(C)[nH]c3c(-c4cc(OC)c(F)cc4OCC4CC4)ccnc23)CC1 [Example E63, 7-[2-(Cyclopropylmethoxy)-4-fluoro-5-methoxyphenyl]-N-[1-(methoxyacetyl)piperidin-4-yl]-2-methyl-1H-pyrrolo[3,2-b]pyridine-3-carboxamide]
< 1	COc1cc(-c2ccnc3c(C(=O)N[C@H]4CC[C@H](NC(C)=O)CC4)c(C)[nH]c23)c(OCC2CC2)cc1F [Example E64, N-[trans-4-(Acetylamino)cyclohexyl]-7-[2-(cyclopropylmethoxy)-4-fluoro-5-methoxyphenyl]-2-methyl-1H-pyrrolo[3,2-b]pyridine-3-carboxamide]
< 1	CCC(=O)N[C@H]1CC[C@H](NC(=O)c2c(C)[nH]c3c(-c4cc(OC)c(F)cc4OCC4CC4)ccnc23)CC1 [Example E65, 7-[2-(Cyclopropylmethoxy)-4-fluoro-5-methoxyphenyl]-2-methyl-N-[trans-4-(propanoylamino)cyclohexyl]-1H-pyrrolo[3,2-b]pyridine-3-carboxamide]
< 1	COCC(=O)N[C@H]1CC[C@H](NC(=O)c2c(C)[nH]c3c(-c4cc(OC)c(F)cc4OCC4CC4)ccnc23)CC1 [Example E66, 7-[2-(Cyclopropylmethoxy)-4-fluoro-5-methoxyphenyl]-N-{trans-4-[(methoxyacetyl)amino]cyclohexyl}-2-methyl-1H-pyrrolo[3,2-b]pyridine-3-carboxamide]
< 1	COc1cc(-c2ccnc3c(C(=O)N[C@H]4CC[C@@H](NC(C)=O)CC4)c(C)[nH]c23)c(OCC2CC2)cc1F [Example E67, N-[cis-4-(Acetylamino)cyclohexyl]-7-[2-(cyclopropylmethoxy)-4-fluoro-5-methoxyphenyl]-2-methyl-1H-pyrrolo[3,2-b]pyridine-3-carboxamide]
< 1	CCC(=O)N[C@H]1CC[C@@H](NC(=O)c2c(C)[nH]c3c(-c4cc(OC)c(F)cc4OCC4CC4)ccnc23)CC1 [Example E68, 7-[2-(Cyclopropylmethoxy)-4-fluoro-5-methoxyphenyl]-2-methyl-N-[cis-4-(propanoylamino)cyclohexyl]-1H-pyrrolo[3,2-b]pyridine-3-carboxamide]
